Test results: PubChem BioAssay AID328 (DTP/NCI, 2004)
“And” between values parts separate entries of the source, which are not always exact repeats. Identical values can stand only once. Toxic doses and inconclusive results are not listed. Rule for the calls: active = survival T/C of 150% or more; inactive = T/C below 125% in these data.

System: BDF1 mice, P388 leukemia ip, median survival T/C
Test: NCI In Vivo Anticancer Drug Screen. Data for tumor model P388 Leukemia (intraperitoneal) in B6D2F1 (BDF1) mice
Conditions: endpoint: median survival time, higher = longer survival
Summary of the method: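 Survival ratio, drug arm over vehicle arm, in mice with a transplanted tumour.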

[1] = dose: 100.0 mg/kg/injection, schedule: Q01DX009 (ip), vehicle: saline with Tween-80
[2] = dose: 100.0 mg/kg/injection, schedule: Q04DX003 (ip), vehicle: saline with Tween-80
[3] = dose: 200.0 mg/kg/injection, schedule: Q04DX003 (ip), vehicle: saline with Tween-80
[4] = dose: 400.0 mg/kg/injection, schedule: Q04DX003 (ip), vehicle: saline with Tween-80
[5] = dose: 200.0 mg/kg/injection, schedule: Q01DX009 (ip), vehicle: saline with Tween-80

Measured: T/C

C1O[C@@H]1[C@@H]1CO1
inactive: dose: 100.0 mg/kg/injection, schedule: Q01DX006 (ip), vehicle: water 100 % of control | dose: 100.0 mg/kg/injection, schedule: Q01DX010 (ip), vehicle: water 104 % of control and 120 % of control | dose: 200.0 mg/kg/injection, schedule: Q01DX006 (ip), vehicle: water 100 % of control | dose: 225.0 mg/kg/injection, schedule: Q01DX010 (ip), vehicle: water 113 % of control | dose: 300.0 mg/kg/injection, schedule: Q01DX006 (ip), vehicle: water 100 % of control | dose: 300.0 mg/kg/injection, schedule: Q01DX010 (ip), vehicle: water 100 % of control | dose: 335.0 mg/kg/injection, schedule: Q01DX010 (ip), vehicle: water 90 % of control | dose: 400.0 mg/kg/injection, schedule: Q01DX006 (ip), vehicle: water 100 % of control | dose: 400.0 mg/kg/injection, schedule: Q01DX010 (ip), vehicle: water 86 % of control and 95 % of control | dose: 600.0 mg/kg/injection, schedule: Q01DX010 (ip), vehicle: water 90 % of control
active: dose: 200.0 mg/kg/injection, schedule: Q01DX010 (ip), vehicle: water 150 % of control

OC1CC2c3ccccc3C1c1cccc[n+]12 (centres undefined)
inactive: dose: 12.5 mg/kg/injection, schedule: Q01DX009 (ip), vehicle: Klucel (hydroxypropylcellulose) (HPC) 87 % of control and 91 % of control | dose: 25.0 mg/kg/injection, schedule: Q01DX009 (ip), vehicle: Klucel (hydroxypropylcellulose) (HPC) 104 % of control | dose: 50.0 mg/kg/injection, schedule: Q01DX009 (ip), vehicle: Klucel (hydroxypropylcellulose) (HPC) 91 % of control and 100 % of control | dose: 56.25 mg/kg/injection, schedule: Q04DX003 (ip), vehicle: Klucel (hydroxypropylcellulose) (HPC) 100 % of control | dose: 75.0 mg/kg/injection, schedule: Q01DX009 (ip), vehicle: Klucel (hydroxypropylcellulose) (HPC) 100 % of control | dose: 112.5 mg/kg/injection, schedule: Q04DX003 (ip), vehicle: Klucel (hydroxypropylcellulose) (HPC) 108 % of control

Brc1ncnc2nc[nH]c12
inactive: dose: 100.0 mg/kg/injection, schedule: Q01DX009 (ip), vehicle: saline sonified 105 % of control | dose: 100.0 mg/kg/injection, schedule: Q04DX003 (ip), vehicle: saline sonified 100 % of control | dose: 200.0 mg/kg/injection, schedule: Q01DX009 (ip), vehicle: saline sonified 111 % of control | dose: 200.0 mg/kg/injection, schedule: Q04DX003 (ip), vehicle: saline sonified 105 % of control | dose: 400.0 mg/kg/injection, schedule: Q01DX009 (ip), vehicle: saline sonified 116 % of control | dose: 400.0 mg/kg/injection, schedule: Q04DX003 (ip), vehicle: saline sonified 100 % of control

COC(=O)CCCC1=NC2=CC=CC3=NC(C)=NC(=N1)N23
inactive: dose: 25.0 mg/kg/injection, schedule: Q01DX009 (ip), vehicle: saline with Tween-80 110 % of control | [1] 99 % of control

O=C(OC12CCCCC1CCCC2)c1ccc([N+](=O)[O-])cc1 (centres undefined)
inactive: [2] 110 % of control | [3] 100 % of control | [4] 100 % of control

CC(C)(O)C1C2OC(=O)C1C1(O)CC3OC34C(=O)OC2C14C (centres undefined)
inactive: dose: 12.5 mg/kg/injection, schedule: Q04DX003 (ip), vehicle: saline with Tween-80 109 % of control | dose: 25.0 mg/kg/injection, schedule: Q04DX003 (ip), vehicle: saline with Tween-80 95 % of control

Clc1c(Cl)c(C[P+](CCP(c2ccccc2)c2ccccc2)(c2ccccc2)c2ccccc2)c(Cl)c(Cl)c1C[P+](CCP(c1ccccc1)c1ccccc1)(c1ccccc1)c1ccccc1
inactive: dose: 3.13 mg/kg/injection, schedule: Q01DX009 (ip), vehicle: suspension in saline 114 % of control

CCC[S-].CCC[S-].[C-]#[O+].[C-]#[O+].[C-]#[O+].[C-]#[O+].[Rh].[Rh]
inactive: [2] 122 % of control | [5] 90 % of control | [3] 122 % of control | dose: 400.0 mg/kg/injection, schedule: Q01DX009 (ip), vehicle: saline with Tween-80 100 % of control | [4] 122 % of control

COc1ccc(CCn2nnc3ccccc3c2=O)cc1OC
inactive: dose: 50.0 mg/kg/injection, schedule: Q01DX009 (ip), vehicle: saline with Tween-80 98 % of control | [1] 99 % of control | [5] 105 % of control

O=C(c1cc(C(F)(F)F)cc(C(F)(F)F)c1)N1CC1
inactive: dose: 3.12 mg/kg/injection, schedule: Q01DX009 (ip), vehicle: water 100 % of control | dose: 6.25 mg/kg/injection, schedule: Q01DX009 (ip), vehicle: water 105 % of control | dose: 12.5 mg/kg/injection, schedule: Q01DX009 (ip), vehicle: water 114 % of control | dose: 25.0 mg/kg/injection, schedule: Q01DX009 (ip), vehicle: water 100 % of control | dose: 50.0 mg/kg/injection, schedule: Q01DX009 (ip), vehicle: water 110 % of control
